Test results published in patent US20040157930A1, “Histone deacetylase enzyme-inhibiting derivatives of hydroxamic acid as new cytokine synthesis-inhibiting anti-inflammatory drugs” (priority 2001, published 2004).
pIC50: −log10 of the molar value.

Legend:
[1] = system: TNFα; experiment: TNFα inhibition test (Moreira et al.); assay type: cell-based; conditions: for pIC50: read-out: TNF IC50; for TNF Potency: relative potency, compound 1 = 100.00
From the text: A series of hydroxamic acid derivatives described in EP 901465 were subjected to the histone deacetylase (HDAC) and TNFα inhibition tests in accordance with the methods described by Lechner et al., Biochim Biophys. Acta 1996, 1296, 181-188 and Moreira A. L. et al., J. Exp. Med. 1993, […] respectively.

[2] = system: IL-1β; experiment: LPS-stimulated PBMC cytokine production in vitro: IL-1β (ECL); assay type: cell-based; conditions: Homo sapiens, LPS 10 ng/ml, 24 h
Protocol: (§1) Samples of peripheral blood or buffy coats from healthy volunteers were used. […] At the end of the treatment the pro-inflammatory cytokines TNFα, IL-1β were measured by means of an electrochemiluminescence assay (ECL) using specific commercial antibodies.

[3] = system: inflammatory cytokines induced by LPS; experiment: LPS-stimulated PBMC cytokine production, summary over all cytokines; conditions: Homo sapiens, read-out: IC50, synthesis of all the inflammatory cytokines induced by LPS
Protocol: (§2) Interferon γ (IFNγ) was measured with a commercially available ELISA assay.

[4] = system: IFNγ; experiment: IFNγ synthesis by PBMCs stimulated with IL-12 and IL-18 (ELISA); assay type: cell-based; conditions: Homo sapiens; PBMC, IL-12 10 ng/ml + IL-18 20 ng/ml, 48 h; read-out: IFNγ (from IL-12 + IL-18) IC50
Protocol: Cytokine IFNγ is produced by the T lymphocytes following their stimulation by pro-inflammatory cytokines, especially IL-12 and IL-18 (Dinarello C. A. and Moldawer L. L. Proinflammatory and anti-inflammatory cytokines in rheumatoid arthritis. A primer for clinicians. 2nd Edition, Amgen Inc., 2000).
At the end, the cells were stimulated for 48 hours in the presence of the compound by simultaneous addition of recombinant IL-12 (10 ng/ml) and recombinant IL-18 (20 ng/ml). The quantity of IFNγ produced was determined with a commercial ELISA assay.

[5] = system: IFNγ; experiment: LPS-stimulated PBMC cytokine production in vitro: IFNγ (ELISA); conditions: Homo sapiens, 24 h, read-out: IFNγ IC50
Protocol: as §2

[6] = system: TNFα; experiment: LPS-stimulated PBMC cytokine production in vitro: TNFα (ECL); assay type: cell-based; conditions: Homo sapiens, LPS 10 ng/ml, 24 h
Protocol: as §1

Row | Compound | pIC50 [1] | TNF Potency [1] | further results
1 | O=C(Nc1ccc(C(=O)NO)cc1)OCCCc1ccccn1 [Compound 12] | 6.64 | 3.04 | –
2 | CCCCN(CCCC)Cc1ccc2cc(COC(=O)Nc3ccc(C(=O)NO)cc3)ccc2c1 [Compound 8] | 7.17 | 10.32 | –
3 | CC(/C=C/C(=O)NO)=C\[C@@H](C)C(=O)c1ccc(N(C)C)cc1 [TSA, trichostatin] | – | – | pIC50 [2]: 7.00; pIC50 [3]: 6.70 to 7.30; pIC50 [4]: 6.31; pIC50 [5]: 8.00; pIC50 [6]: 7.30
4 | O=C(Nc1ccc(C(=O)NO)cc1)OCc1ccc2c(c1)OCO2 [Compound 6] | 7.30 | 14.00 | –
5 | CCN(CC)Cc1ccc2cc(CCC(=O)Nc3ccc(C(=O)NO)cc3)ccc2c1 [Compound 2] | 7.99 | 68.75 | –
6 | O=C(CCCCc1ccccc1)Nc1ccc(C(=O)NO)cc1 [Compound 14] | 6.52 | 2.33 | –
7 | O=C(Nc1ccc(C(=O)NO)cc1)OCc1ccc2ccccc2c1 [Compound 11] | 6.80 | 4.40 | –
8 | O=C(Nc1ccc(C(=O)NO)cc1)OCCCc1ccncc1 [Compound 13] | 6.57 | 2.59 | –
9 | CCCN(CCC)Cc1ccc2cc(COC(=O)Nc3ccc(C(=O)NO)cc3)ccc2c1 [Compound 5] | 7.90 | 55.28 | –
10 | CCN(CC)Cc1ccc(COC(=O)Nc2ccc(C(=O)NO)cc2)c2ccccc12 [Compound 3] | 7.99 | 68.02 | –
11 | O=C(Nc1ccc(C(=O)NO)cc1)OCCCc1ccccc1 [Compound 10] | 6.80 | 4.40 | –
12 | CCN(CC)Cc1ccc2cc(CNC(=O)Nc3ccc(C(=O)NO)cc3)ccc2c1 [Compound 4] | 7.95 | 62.68 | –
13 | CC[N+]([O-])(CC)Cc1ccc2cc(COC(=O)Nc3ccc(C(=O)NO)cc3)ccc2c1 [Compound 15] | 6.00 | 0.70 | –
14 | O=C(Nc1ccc(C(=O)NO)cc1)OCCC12CC3CC(CC(C3)C1)C2 [Compound 9] | 6.80 | 4.40 | –
15 | CCN(CC)Cc1ccc2cc(COC(=O)Nc3ccc(C(=O)NO)cc3)ccc2c1 [Compound 1] | 8.15 | 100.00 | –
16 | O=C(Nc1ccc(C(=O)NO)cc1)OCC1CCc2ccccc2C1 (centres unmarked) [Compound 7] | 7.18 | 10.68 | –
